From patent US9757353B2, “Methods of inducing anesthesia” (THE REGENTS OF THE UNIVERSITY OF CALIFORNIA, priority 2012, dated 2017)

Key:
[1] = target: T1, NMDA (NR1/NR2A) receptors (Rattus norvegicus, UniProt P35439+Q00959); assay: Oocyte two-electrode voltage clamp, NMDA receptor currents; type: cell-based; settings: for NMDA % Direct Effect: drug response without receptor agonist, percent of control agonist peak, saturated drug, mean ± SEM, 5-6 oocytes; for NMDA Drug Response: saturated drug + agonist; for direct effect on NMDA receptors (in words): absence of glutamate and glycine agonist
T1 construct: expressed in transfected cells; host or cells: Xenopus laevis oocytes, injected with in vitro transcribed RNA (1:1), clones a gift from Dr. R. A. Harris
Excerpt: Methods: GABAA (α1β2γ2s) or NMDA (NR1/NR2A) receptors were expressed in oocytes and studied using standard two-electrode voltage clamp techniques. Hydrocarbons from 14 different organic functional groups were studied at saturated concentrations, and compounds within each group differed only by the carbon number at the ω-position or within a saturated ring. An effect on GABAA or NMDA receptors was defined as a 10% or greater reversible current change from baseline that was statistically different from zero.
Oocyte Collection and Receptor Expression. An ovary from tricaine-anesthetized Xenopus laevis frogs was surgically removed using a protocol approved by the Institutional Animal Care and Use Committee at the University of California, Davis. Following manual disruption of the ovarian lobule septae, the ovary was incubated in 0.2% Type I collagenase (Worthington Biochemical, Lakewood, N.J.) to defolliculate oocytes which were washed and stored in fresh and filtered modified Barth's solution composed of 88 mM NaCl, 1 mM KCl, 2.4 mM NaHCO3, 20 mM HEPES, 0.82 mM MgSO4, 0.33 mM Ca(NO3)2, 0.41 mM CaCl2, 5 mM sodium pyruvate, gentamycin, penicillin, streptomycin, and corrected to pH=7.4. All salts and antibiotics were A.C.S. grade (Fisher Scientific, Pittsburgh, Pa.).
Clones used were provided as a gift from Dr. R. A. Harris (University of Texas, Austin) and were sequenced and compared to references in the National Center for Biotechnology Information database to confirm the identity of each gene. GABAA receptors were expressed using clones for the human GABAA α1 and the rat GABAA β2 and γ2s subunits in pCIS-II vectors. […] In separate oocytes, glutamate receptors were expressed using rat NMDA NR1 clones in a pCDNA3 vector and rat NMDA NR2A clones in a Bluescript vector. RNA encoding each subunit was prepared using a commercial transcription kit (T7 mMessage mMachine, Ambion, Austin, Tex.) was mixed in a 1:1 ratio, and 1-10 ng of total RNA was injected into oocytes and studied 1-2 days later.
NMDA Receptor Electrophysiology Studies. […] Briefly, baseline perfusion solutions were the same as for GABAA with the substitution of equimolar BaCl2 for calcium salts and the addition of 0.1 mM EGTA; this constituted barium frog Ringer's solution (BaFR). Agonist solutions for NMDA studies also contained 0.1 mM glutamate (E) and 0.01 mM glycine (G) to constitute a BaFREG solution.
The syringe pump and perfusion chamber apparatus as well as the clamp holding potential and baseline-agonist exposure protocols were identical to that described for the GABAA studies. The same test compounds, concentrations, and preparative methods were used in NMDA voltage clamp studies as in the GABAA voltage clamp studies (Table 2).
Response Calculations and Data Analysis. Modulating drug responses were calculated as the percent of the control (baseline) peak as follows:
[formula] where ID and IB were the peak currents measured during agonist+drug and agonist baseline perfusions, respectively. When present, direct receptor activation by a drug was similarly calculated as a percent of the agonist response. […] A lack of receptor response (cut-off) was defined as a <10% change from baseline current that was statistically indistinguishable from zero using a two-tailed Student t-test.

[2] = target: GABAA (α1β2γ2s) receptors (UniProt P14867+P18508+P63138); assay: Oocyte two-electrode voltage clamp, GABAA receptor currents; settings: for GABAA % Direct Effect: drug response without receptor agonist, percent of control agonist peak, saturated drug, mean ± SEM, 5-6 oocytes; for GABAA Drug Response: saturated drug + agonist; for GABAA receptor modulation (in words): saturating aqueous concentration
Sequence of GABAA (α1β2γ2s) receptors (P14867 28-456): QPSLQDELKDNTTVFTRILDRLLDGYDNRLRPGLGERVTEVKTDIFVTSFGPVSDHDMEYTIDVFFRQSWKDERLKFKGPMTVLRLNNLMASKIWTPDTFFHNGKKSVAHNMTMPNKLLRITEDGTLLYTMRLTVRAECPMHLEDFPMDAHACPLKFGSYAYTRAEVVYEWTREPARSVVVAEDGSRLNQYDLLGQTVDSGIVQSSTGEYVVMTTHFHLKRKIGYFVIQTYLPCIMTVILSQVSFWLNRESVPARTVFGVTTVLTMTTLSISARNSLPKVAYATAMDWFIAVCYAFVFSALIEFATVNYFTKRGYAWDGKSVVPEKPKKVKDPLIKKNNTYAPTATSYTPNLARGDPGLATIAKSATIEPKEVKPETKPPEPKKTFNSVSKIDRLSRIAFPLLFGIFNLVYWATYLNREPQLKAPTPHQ
Sequence of GABAA (α1β2γ2s) receptors (P63138 25-474 limits assumed): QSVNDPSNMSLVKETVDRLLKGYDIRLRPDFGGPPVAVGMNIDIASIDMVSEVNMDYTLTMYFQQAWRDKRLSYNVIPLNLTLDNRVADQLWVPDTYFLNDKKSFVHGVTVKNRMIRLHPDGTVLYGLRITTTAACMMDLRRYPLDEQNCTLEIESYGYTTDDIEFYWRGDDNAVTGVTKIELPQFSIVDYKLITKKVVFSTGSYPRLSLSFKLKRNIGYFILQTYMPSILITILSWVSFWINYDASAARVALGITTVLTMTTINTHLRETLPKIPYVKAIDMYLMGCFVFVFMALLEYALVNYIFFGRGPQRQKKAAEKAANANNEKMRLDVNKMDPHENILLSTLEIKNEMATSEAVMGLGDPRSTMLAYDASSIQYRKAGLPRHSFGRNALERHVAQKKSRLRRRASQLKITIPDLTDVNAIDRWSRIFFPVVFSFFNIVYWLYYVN
Sequence of GABAA (α1β2γ2s) receptors (P18508 39-466): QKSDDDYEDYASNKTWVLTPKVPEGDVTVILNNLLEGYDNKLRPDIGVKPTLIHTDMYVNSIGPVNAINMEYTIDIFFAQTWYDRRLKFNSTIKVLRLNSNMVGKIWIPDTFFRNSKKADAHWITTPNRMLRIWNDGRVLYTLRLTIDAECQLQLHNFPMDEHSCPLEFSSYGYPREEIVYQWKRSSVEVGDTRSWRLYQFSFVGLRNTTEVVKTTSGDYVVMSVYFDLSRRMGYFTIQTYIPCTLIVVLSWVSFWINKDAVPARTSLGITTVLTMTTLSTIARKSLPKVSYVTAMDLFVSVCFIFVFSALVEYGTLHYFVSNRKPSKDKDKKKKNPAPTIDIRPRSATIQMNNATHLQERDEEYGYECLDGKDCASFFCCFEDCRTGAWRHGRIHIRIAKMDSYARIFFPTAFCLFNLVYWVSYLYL
Protocol: GABAA receptors were expressed using clones for the human GABAA α1 and the rat GABAA β2 and γ2s subunits in pCIS-II vectors. […] These plasmid ratios ensured incorporation of the γ-subunit into expressed receptors, as confirmed via receptor potentiation to 10 μM chlordiazepoxide or insensitivity to 10 μM zinc chloride during co-application with GABA. In separate oocytes, glutamate receptors were expressed using rat NMDA NR1 clones in a pCDNA3 vector and rat NMDA NR2A clones in a Bluescript vector. RNA encoding each subunit was prepared using a commercial transcription kit (T7 mMessage mMachine, Ambion, Austin, Tex.) was mixed in a 1:1 ratio, and 1-10 ng of total RNA was injected into oocytes and studied 1-2 days later.
Oocytes were studied in a 250 μL linear-flow perfusion chamber with solutions administered by syringe pump at 1.5 ml/min with gastight glass syringes and Teflon tubing. Oocyte GABAA currents were studied using standard two-electrode voltage clamping techniques at a holding potential of 80 mV using a 250 μL channel linear-flow perfusion chamber with solutions administered by syringe pump at 1.5 mL/min.
After FR perfusion for 5 min, oocytes were exposed to 30 sec FR-GABA followed by another 5 min FR washout; this was repeated until stable GABAA-elicited peaks were obtained. Next, FR containing a saturated solution of the study drug (Table 2)—or for gaseous study compounds a vapor pressure equal to 90% of barometric pressure with balance oxygen—was used to perfuse the oocyte chamber for 2 min followed by perfusion with a FR-GABA solution containing the identical drug concentration for 30 sec.
[formula] where ID and IB were the peak currents measured during agonist+drug and agonist baseline perfusions, respectively. When present, direct receptor activation by a drug was similarly calculated as a percent of the agonist response. Average current responses for each drug and channel were described by mean±SD. A lack of receptor response (cut-off) was defined as a <10% change from baseline current that was statistically indistinguishable from zero using a two-tailed Student t-test.

T1 sequence (Q00959 23-1464, other chains not shown): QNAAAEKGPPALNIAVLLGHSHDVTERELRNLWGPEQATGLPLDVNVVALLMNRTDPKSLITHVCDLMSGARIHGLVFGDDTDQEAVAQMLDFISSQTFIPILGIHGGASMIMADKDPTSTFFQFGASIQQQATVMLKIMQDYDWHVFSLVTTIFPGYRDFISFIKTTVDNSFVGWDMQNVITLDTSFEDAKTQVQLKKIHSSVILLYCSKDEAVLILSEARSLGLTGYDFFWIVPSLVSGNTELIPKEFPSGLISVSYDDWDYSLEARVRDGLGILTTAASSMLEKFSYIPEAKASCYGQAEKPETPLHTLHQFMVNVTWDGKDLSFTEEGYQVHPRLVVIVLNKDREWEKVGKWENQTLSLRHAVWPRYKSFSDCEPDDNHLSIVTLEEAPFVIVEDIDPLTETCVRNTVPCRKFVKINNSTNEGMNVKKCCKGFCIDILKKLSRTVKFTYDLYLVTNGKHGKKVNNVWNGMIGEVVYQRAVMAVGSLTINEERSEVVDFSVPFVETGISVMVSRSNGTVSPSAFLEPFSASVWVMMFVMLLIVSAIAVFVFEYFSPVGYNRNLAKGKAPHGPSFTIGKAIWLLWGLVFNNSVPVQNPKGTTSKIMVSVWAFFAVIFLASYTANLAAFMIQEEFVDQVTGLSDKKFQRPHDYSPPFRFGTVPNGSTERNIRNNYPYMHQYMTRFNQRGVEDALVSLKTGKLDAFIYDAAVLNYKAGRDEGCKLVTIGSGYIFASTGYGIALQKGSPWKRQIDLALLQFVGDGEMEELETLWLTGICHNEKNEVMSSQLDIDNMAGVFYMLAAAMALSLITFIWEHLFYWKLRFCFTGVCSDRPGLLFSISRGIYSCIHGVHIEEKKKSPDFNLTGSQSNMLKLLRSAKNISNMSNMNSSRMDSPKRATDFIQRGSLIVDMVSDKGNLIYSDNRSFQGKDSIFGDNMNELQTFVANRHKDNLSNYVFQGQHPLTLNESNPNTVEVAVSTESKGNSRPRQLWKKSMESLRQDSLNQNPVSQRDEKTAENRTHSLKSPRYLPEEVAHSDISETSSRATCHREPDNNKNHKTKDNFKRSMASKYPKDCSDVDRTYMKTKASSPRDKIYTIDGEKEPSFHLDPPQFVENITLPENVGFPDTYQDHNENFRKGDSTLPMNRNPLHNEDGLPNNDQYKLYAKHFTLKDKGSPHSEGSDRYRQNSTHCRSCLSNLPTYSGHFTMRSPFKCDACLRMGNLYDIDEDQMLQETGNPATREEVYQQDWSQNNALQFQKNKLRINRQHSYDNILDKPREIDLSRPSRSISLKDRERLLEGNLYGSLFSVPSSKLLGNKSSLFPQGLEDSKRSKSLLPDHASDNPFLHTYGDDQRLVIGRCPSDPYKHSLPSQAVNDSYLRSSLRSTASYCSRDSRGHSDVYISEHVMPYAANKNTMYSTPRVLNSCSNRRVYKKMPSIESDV

Molecule | NMDA % Direct Effect [1] | NMDA Drug Response [1] | GABAA % Direct Effect [2] | GABAA Drug Response [2] | direct effect on NMDA receptors (in words) [1] | GABAA receptor modulation (in words) [2] | NMDA receptor modulation (in words) ([1]; saturating aqueous concentration)
CCCCCC [hexane] | none | 0 (no response (0) for drug+agonist responses that differ by <10% from the control agonist peak) | none | + (potentiation (+) for drug+agonist responses greater than the control agonist peak) |  |  | 
CCCCCCCCCC=O [decanal] | none | 0 (no response (0) for drug+agonist responses that differ by <10% from the control agonist peak) | none | + (potentiation (+) for drug+agonist responses greater than the control agonist peak) |  |  | 
CCCCCCCCCC(C)=O [2-undecanone] | none | 0 (no response (0) for drug+agonist responses that differ by <10% from the control agonist peak) | none | + (potentiation (+) for drug+agonist responses greater than the control agonist peak) |  |  | 
CCCCCCCCF [1-fluoroctane] | none | 0 (no response (0) for drug+agonist responses that differ by <10% from the control agonist peak) | none | + (potentiation (+) for drug+agonist responses greater than the control agonist peak) |  |  | 
CCCCCCCCCCCCO [1-dodecanol] | none | 0 (no response (0) for drug+agonist responses that differ by <10% from the control agonist peak) | none | + (potentiation (+) for drug+agonist responses greater than the control agonist peak) |  |  | 
C1CCCC1 [cyclopentane] | none |  |  | + (potentiation (+) for drug+agonist responses greater than the control agonist peak) |  |  | 
CCCCCCCCCCC(C)=O [2-dodecanone] | none | 0 (no response (0) for drug+agonist responses that differ by <10% from the control agonist peak) | none | + (potentiation (+) for drug+agonist responses greater than the control agonist peak) |  |  | 
C#CCCCCC [1-heptyne] | none |  | none | + (potentiation (+) for drug+agonist responses greater than the control agonist peak) |  |  | 
CN1CCOCC1 [4-methylmorpholine] |  |  |  |  | direct activation of NMDA receptors |  | 
CCCCCCCCCC(=O)OCC [ethyl decanoate] | none | 0 (no response (0) for drug+agonist responses that differ by <10% from the control agonist peak) | none | + (potentiation (+) for drug+agonist responses greater than the control agonist peak) |  |  | 
CCCCCCSCC [1-(ethylthio)-hexane] | none |  | none | + (potentiation (+) for drug+agonist responses greater than the control agonist peak) |  |  | 
CCCCCCCCCCCO [1-undecanol] | none | 0 (no response (0) for drug+agonist responses that differ by <10% from the control agonist peak) | none | + (potentiation (+) for drug+agonist responses greater than the control agonist peak) |  |  | 
C=CCCC [1-pentene] | none |  | 2 ± 3% | + (potentiation (+) for drug+agonist responses greater than the control agonist peak) |  |  | 
N-methylpiperadine |  |  |  |  | direct activation of NMDA receptors |  | 
CCCCCCC(=O)OCC [ethyl heptanoate] | none |  | none | + (potentiation (+) for drug+agonist responses greater than the control agonist peak) |  |  | 
CCCCCCCCCCO [1-decanol] | none |  | none | + (potentiation (+) for drug+agonist responses greater than the control agonist peak) |  |  | 
CCCCCCCC(=O)OCC [ethyl octanoate] | none |  | none | + (potentiation (+) for drug+agonist responses greater than the control agonist peak) |  |  | 
CCCCC [pentane] | none | 0 (no response (0) for drug+agonist responses that differ by <10% from the control agonist peak) | none | + (potentiation (+) for drug+agonist responses greater than the control agonist peak) |  | positively modulate GABAA receptors | 
C#CCCCCCC [1-octyne] | none | 0 (no response (0) for drug+agonist responses that differ by <10% from the control agonist peak) | none | + (potentiation (+) for drug+agonist responses greater than the control agonist peak) |  |  | 
CCCC [butane] | none |  | none | + (potentiation (+) for drug+agonist responses greater than the control agonist peak) |  | positively modulate GABAA receptors | negatively modulates NMDA receptors
CCCCCCOCCCCCC [dihexylether] | none | 0 (no response (0) for drug+agonist responses that differ by <10% from the control agonist peak) | none | + (potentiation (+) for drug+agonist responses greater than the control agonist peak) |  |  | 
CCCCCCF [1-fluorohexane] | none | 0 (no response (0) for drug+agonist responses that differ by <10% from the control agonist peak) |  | + (potentiation (+) for drug+agonist responses greater than the control agonist peak) |  |  | 
CCCCCCCCCCCCCCCCCCN [1-octadecanamine] | none |  | none | + (potentiation (+) for drug+agonist responses greater than the control agonist peak) |  |  | 
CCCCCCCCCCC=O [undecanal] | none | 0 (no response (0) for drug+agonist responses that differ by <10% from the control agonist peak) | none | + (potentiation (+) for drug+agonist responses greater than the control agonist peak) |  |  | 
CCCCCF [1-fluoropentane] | none |  | none | + (potentiation (+) for drug+agonist responses greater than the control agonist peak) |  |  | 
CCCCCCCCC(C)=O [2-decanone] | none |  | none | + (potentiation (+) for drug+agonist responses greater than the control agonist peak) |  |  | 
CCc1cccc(CC)c1 [1,3-diethylbenzene] | none | 0 (no response (0) for drug+agonist responses that differ by <10% from the control agonist peak) | none | + (potentiation (+) for drug+agonist responses greater than the control agonist peak) |  |  | 
C=CCCCC [1-hexene] | none | 0 (no response (0) for drug+agonist responses that differ by <10% from the control agonist peak) | none | + (potentiation (+) for drug+agonist responses greater than the control agonist peak) |  |  | 
CCCCCCCCC=O [nonanal] | none | 0 (no response (0) for drug+agonist responses that differ by <10% from the control agonist peak) | none | + (potentiation (+) for drug+agonist responses greater than the control agonist peak) |  |  | 
